#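 Compound exposure: 48 hours, 5 concentrations, 96-well plates. TGI: concentration producing complete growth inhibition.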
# Legend:
# Assay in all cases: DTP human tumour cell line panel, 48 h
# [1] = tested on: SK-OV-3 ovarian
# [2] = tested on: IGROV1 ovarian
# [3] = tested on: MDA-MB-231 breast
# [4] = tested on: U251 CNS
# [5] = tested on: SN12C renal
# [6] = tested on: OVCAR-4 ovarian
# [7] = tested on: K-562 leukemia
# [8] = tested on: NCI/ADR-RES ovarian
# [9] = tested on: ACHN renal
# [10] = tested on: SF-268 CNS
# [11] = tested on: KM12 colon
# [12] = tested on: M14 melanoma
# [13] = tested on: NCI-H23 lung
# [14] = tested on: SK-MEL-5 melanoma
# [15] = tested on: A549 NSCLC
# [16] = tested on: NCI-H226 lung
# [17] = tested on: HL-60(TB) leukemia
# [18] = tested on: OVCAR-3 ovarian
# [19] = tested on: EKVX NSCLC
# [20] = tested on: CCRF-CEM leukemia
# [21] = tested on: BT-549 breast
# [22] = tested on: SNB-19 CNS
# [23] = tested on: SW-620 colon
# [24] = tested on: TK-10 renal
# [25] = tested on: HCT-15 colon
# [26] = tested on: DU-145 prostate
# [27] = tested on: SNB-75 CNS
# [28] = tested on: UACC-62 melanoma
# [29] = tested on: T-47D breast
# [30] = tested on: OVCAR-8 ovarian
# [31] = tested on: MOLT-4 leukemia
# [32] = tested on: NCI-H522 lung
# [33] = tested on: HCT-116 colon
# [34] = tested on: MALME-3M melanoma
# [35] = tested on: UO-31 renal
# [36] = tested on: MDA-N
# [37] = tested on: SR leukemia
# [38] = tested on: 786-0 renal
# [39] = tested on: MDA-MB-435
# [40] = tested on: LOX IMVI melanoma
# [41] = tested on: OVCAR-5 ovarian
# [42] = tested on: NCI-H460 lung
# [43] = tested on: SK-MEL-2 melanoma
# [44] = tested on: RPMI-8226 leukemia
# [45] = tested on: COLO 205 colon
# [46] = tested on: PC-3 prostate
# [47] = tested on: SF-539 CNS
# [48] = tested on: HT29 colon
# [49] = tested on: MCF7 breast
# [50] = tested on: CAKI-1 renal
# [51] = tested on: SK-MEL-28 melanoma
# [52] = tested on: SF-295 CNS
# [53] = tested on: RXF 393 renal
# [54] = tested on: UACC-257 melanoma
# [55] = tested on: HOP-92 NSCLC
# [56] = tested on: HS 578T breast
# [57] = tested on: HOP-62 NSCLC
# [58] = tested on: A498 renal
# [59] = tested on: HCC-2998 colon
smiles,measurement,setting,value
O=C1O/C(=C\C=C\CO)C=C1/C=C/CO,TGI,[1],> 100 µM
same,TGI,[2],38.6 µM
same,TGI,[3],52.8 µM
same,TGI,[4],> 100 µM
same,TGI,[5],80.4 µM
same,TGI,[6],> 100 µM
same,TGI,[7],> 100 µM
same,TGI,[8],89.1 µM
same,TGI,[9],69.5 µM
same,TGI,[10],58.2 µM
same,TGI,[11],> 100 µM
same,TGI,[12],43.1 µM
same,TGI,[13],41.9 µM
same,TGI,[14],46 µM
same,TGI,[15],> 100 µM
same,TGI,[16],95.8 µM
same,TGI,[17],54.7 µM
same,TGI,[18],48.8 µM
same,TGI,[19],35.5 µM
same,TGI,[20],60.3 µM
same,TGI,[21],50.9 µM
same,TGI,[22],51.4 µM
same,TGI,[23],45.9 µM
same,TGI,[24],41 µM
same,TGI,[25],30.8 µM
same,TGI,[26],50.7 µM
same,TGI,[27],> 100 µM
same,TGI,[28],39.8 µM
same,TGI,[29],51.7 µM
same,TGI,[30],38.6 µM
same,TGI,[31],> 100 µM
same,TGI,[32],22.5 µM
same,TGI,[33],29.9 µM
same,TGI,[34],32.5 µM
same,TGI,[35],30.8 µM
same,TGI,[36],59.9 µM
same,TGI,[37],71.4 µM
same,TGI,[38],33.7 µM
same,TGI,[39],> 100 µM
same,TGI,[40],> 100 µM
same,TGI,[41],41.7 µM
same,TGI,[42],> 100 µM
same,TGI,[43],43.4 µM
same,TGI,[44],47.6 µM
same,TGI,[45],5.16 µM
same,TGI,[46],42.5 µM
same,TGI,[47],55 µM
same,TGI,[48],88.5 µM
same,TGI,[49],> 100 µM
same,TGI,[50],28.3 µM
same,TGI,[51],49.7 µM
same,TGI,[52],> 100 µM
same,TGI,[53],38.3 µM
CC1(C)CC2C(/C1=N/O)C1(C)CCCC2(C)C1O (stereo not given),TGI,[1],> 100 µM
same,TGI,[2],> 100 µM
same,TGI,[4],> 100 µM
same,TGI,[5],> 100 µM
same,TGI,[6],> 100 µM
same,TGI,[7],> 100 µM
same,TGI,[8],> 100 µM
same,TGI,[9],> 100 µM
same,TGI,[10],> 100 µM
same,TGI,[11],> 100 µM
same,TGI,[12],> 100 µM
same,TGI,[13],> 100 µM
same,TGI,[14],> 100 µM
same,TGI,[15],> 100 µM
same,TGI,[16],> 100 µM
same,TGI,[17],> 100 µM
same,TGI,[18],> 100 µM
same,TGI,[19],> 100 µM
same,TGI,[20],> 100 µM
same,TGI,[21],> 100 µM
same,TGI,[54],> 100 µM
same,TGI,[55],> 100 µM
same,TGI,[22],> 100 µM
same,TGI,[23],> 100 µM
same,TGI,[24],> 100 µM
same,TGI,[25],> 100 µM
same,TGI,[26],> 100 µM
same,TGI,[27],> 100 µM
same,TGI,[28],> 100 µM
same,TGI,[29],> 100 µM
same,TGI,[30],> 100 µM
same,TGI,[31],> 100 µM
same,TGI,[32],> 100 µM
same,TGI,[33],> 100 µM
same,TGI,[34],> 100 µM
same,TGI,[35],> 100 µM
same,TGI,[36],> 100 µM
same,TGI,[37],> 100 µM
same,TGI,[38],> 100 µM
same,TGI,[39],> 100 µM
same,TGI,[40],> 100 µM
same,TGI,[41],> 100 µM
same,TGI,[42],> 100 µM
same,TGI,[56],> 100 µM
same,TGI,[43],> 100 µM
same,TGI,[44],> 100 µM
same,TGI,[45],> 100 µM
same,TGI,[46],> 100 µM
same,TGI,[48],> 100 µM
same,TGI,[49],> 100 µM
same,TGI,[57],> 100 µM
same,TGI,[50],> 100 µM
same,TGI,[51],> 100 µM
same,TGI,[52],> 100 µM
Brc1ccc(N=Nc2ccc3ccccc3n2)cc1,TGI,[1],49.6 µM
same,TGI,[2],65.5 µM
same,TGI,[4],36.2 µM
same,TGI,[5],> 100 µM
same,TGI,[8],> 100 µM
same,TGI,[9],31.2 µM
same,TGI,[10],94 µM
same,TGI,[11],> 100 µM
same,TGI,[12],> 100 µM
same,TGI,[13],> 100 µM
same,TGI,[14],> 100 µM
same,TGI,[15],> 100 µM
same,TGI,[16],66.9 µM
same,TGI,[17],> 100 µM
same,TGI,[19],> 100 µM
same,TGI,[20],> 100 µM
same,TGI,[21],60.5 µM
same,TGI,[54],> 100 µM
same,TGI,[55],> 100 µM
same,TGI,[22],37.1 µM
same,TGI,[23],> 100 µM
same,TGI,[24],56.6 µM
same,TGI,[25],> 100 µM
same,TGI,[26],> 100 µM
same,TGI,[27],40.6 µM
same,TGI,[28],43.5 µM
same,TGI,[29],> 100 µM
same,TGI,[30],> 100 µM
same,TGI,[32],21.4 µM
same,TGI,[33],30.1 µM
same,TGI,[34],> 100 µM
same,TGI,[35],27.5 µM
same,TGI,[36],> 100 µM
same,TGI,[38],27.1 µM
same,TGI,[39],> 100 µM
same,TGI,[41],> 100 µM
same,TGI,[42],26.4 µM
same,TGI,[56],56.6 µM
same,TGI,[43],> 100 µM
same,TGI,[44],> 100 µM
same,TGI,[45],> 100 µM
same,TGI,[46],> 100 µM
same,TGI,[47],55.2 µM
same,TGI,[48],> 100 µM
same,TGI,[49],> 100 µM
same,TGI,[50],47 µM
same,TGI,[52],> 100 µM
same,TGI,[53],> 100 µM
O=[N+]([O-])c1cc2ccc1OCc1cccc(n1)COc1ccc(cc1[N+](=O)[O-])C=NCCCCCCCCN=C2,TGI,[2],> 100 µM
same,TGI,[3],> 100 µM
same,TGI,[4],> 100 µM
same,TGI,[5],> 100 µM
same,TGI,[6],> 100 µM
same,TGI,[7],> 100 µM
same,TGI,[8],> 100 µM
same,TGI,[9],> 100 µM
same,TGI,[10],> 100 µM
same,TGI,[11],> 100 µM
same,TGI,[12],> 100 µM
same,TGI,[13],> 100 µM
same,TGI,[14],> 100 µM
same,TGI,[58],> 100 µM
same,TGI,[15],> 100 µM
same,TGI,[16],> 100 µM
same,TGI,[18],> 100 µM
same,TGI,[19],> 100 µM
same,TGI,[20],> 100 µM
same,TGI,[21],> 100 µM
same,TGI,[54],> 100 µM
same,TGI,[55],> 100 µM
same,TGI,[22],> 100 µM
same,TGI,[23],> 100 µM
same,TGI,[24],> 100 µM
same,TGI,[25],> 100 µM
same,TGI,[26],> 100 µM
same,TGI,[27],> 100 µM
same,TGI,[28],> 100 µM
same,TGI,[30],> 100 µM
same,TGI,[31],> 100 µM
same,TGI,[32],> 100 µM
same,TGI,[33],> 100 µM
same,TGI,[34],> 100 µM
same,TGI,[59],> 100 µM
same,TGI,[35],> 100 µM
same,TGI,[36],> 100 µM
same,TGI,[37],> 100 µM
same,TGI,[38],> 100 µM
same,TGI,[39],> 100 µM
same,TGI,[40],> 100 µM
same,TGI,[41],> 100 µM
same,TGI,[42],> 100 µM
same,TGI,[56],> 100 µM
same,TGI,[43],> 100 µM
same,TGI,[44],> 100 µM
same,TGI,[45],> 100 µM
same,TGI,[46],> 100 µM
same,TGI,[47],> 100 µM
same,TGI,[48],> 100 µM
same,TGI,[49],> 100 µM
same,TGI,[57],> 100 µM
same,TGI,[50],> 100 µM
same,TGI,[51],> 100 µM
same,TGI,[52],> 100 µM

# From PubChem BioAssay (NCI)
